This note sets out measurements from PubChem BioAssay AID1963442 (Molecular Pharmacology Branch, DTP, NCI, 2024).

As a reminder, the IC50 is the point on the concentration scale where inhibition reaches its midpoint. By viability, T/C is commonly meant the result in the treated group divided by that in the control group, in per cent.

This test deals with MPNST complex spheroid with HUVEC/MSC, growth, % test/control. Description: Anticancer human tumor MPNST cell line growth inhibition [Asc].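 For all read-outs here: compounds left on spheroids for seven days before reading.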 To be noted: for viability, T/C: stronger effect = lower value. A digest of the protocol:
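Spheroid model: tumor line + HUVEC + hMSC. Single agents and combinations; top conc. at/near clinical Cmax (10 microM if undetermined), half-log dilutions. DMSO stocks at 800-fold test concentration.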

Values joined by “and” are separate entries in the source; they are usually repeats but may differ in a detail not shown here. Equal entries are not always repeated. Bounds are passed on as bounds.

As for `NC(=O)C(=Cn1cnc(-c2cc(C(F)(F)F)cc(C(F)(F)F)c2)n1)c1cncnc1` + CCN1C(C(=O)NC23CCC(C(=O)O)(CC2)CC3)C(c2cccc(Cl)c2F)C2(C(=O)Nc3cc(Cl)ccc32)C12CCCCC2, the 50% inhibitory concentration (IC50) by setting is: (curve of first compound, second compound 0.03 µM) 172 nM; (curve of first compound, second compound 0.0949 µM) 139 nM; (curve of first compound, second compound 0.3 µM) 198 nM; (curve of first compound, second compound 0.949 µM) 88 nM; (curve of first compound, second compound 3 µM) 80.8 nM. Further, the viability, T/C by setting is: (second compound 0.03 µM, first compound 0.000949 µM) 64.2%; (second compound 0.03 µM, first compound 0.003 µM) 78.6%; (second compound 0.03 µM, first compound 0.00949 µM) 66.9%; (second compound 0.03 µM, first compound 0.03 µM) 64%; (second compound 0.03 µM, first compound 0.0949 µM) 56.2%; (second compound 0.03 µM, first compound 0.3 µM) 43.7%. Besides, the viability, T/C (second compound 0.0949 µM, first compound 0.000949 µM) was 75%; the viability, T/C (second compound 0.0949 µM, first compound 0.003 µM) is 90.7%; the viability, T/C (second compound 0.0949 µM, first compound 0.00949 µM) was 79.7%; the viability, T/C (second compound 0.0949 µM, first compound 0.03 µM) is 71%; the viability, T/C (second compound 0.0949 µM, first compound 0.0949 µM) was 55.5%; the viability, T/C (second compound 0.0949 µM, first compound 0.3 µM) was 40.1%. Also, the viability, T/C is 90.9% (second compound 0.3 µM, first compound 0.000949 µM); 99.1% (second compound 0.3 µM, first compound 0.003 µM); 90.9% (second compound 0.3 µM, first compound 0.00949 µM); 79.3% (second compound 0.3 µM, first compound 0.03 µM); 64.8% (second compound 0.3 µM, first compound 0.0949 µM); 42% (second compound 0.3 µM, first compound 0.3 µM). Further, the viability, T/C is 95.2% (second compound 0.949 µM, first compound 0.000949 µM); 97% (second compound 0.949 µM, first compound 0.003 µM); 89.3% (second compound 0.949 µM, first compound 0.00949 µM); 71.6% (second compound 0.949 µM, first compound 0.03 µM); 47.8% (second compound 0.949 µM, first compound 0.0949 µM); 42.5% (second compound 0.949 µM, first compound 0.3 µM). The viability, T/C is, setting by setting: (second compound 3 µM, first compound 0.000949 µM) 93.9%; (second compound 3 µM, first compound 0.003 µM) 77.8%; (second compound 3 µM, first compound 0.00949 µM) 66.1%; (second compound 3 µM, first compound 0.03 µM) 56%; (second compound 3 µM, first compound 0.0949 µM) 50.7%; (second compound 3 µM, first compound 0.3 µM) 42.6%.

As to `NC(=O)C(=Cn1cnc(-c2cc(C(F)(F)F)cc(C(F)(F)F)c2)n1)c1cncnc1`, the viability, T/C is, setting by setting: (compound 0.000949 µM) 66.2% and 56.3% and 21.6%; (compound 0.003 µM) 90% and 89% and 18%; (compound 0.00949 µM) 81.3% and 73.5% and 18.6%; (compound 0.03 µM) 67.2% and 38.9% and 20.1%; (compound 0.0949 µM) 61.8% and 57.6% and 17.8%; (compound 0.3 µM) 53.9% and 40.3% and 22.3%.

As to `NC1CCC(NC2CC2c2ccccc2)CC1` (stereo not given) + CNC(C)C(=O)NC1CN(S(=O)(=O)c2cccc(S(=O)(=O)N3CCC4CCC(C(=O)NC(c5ccccc5)c5ccccc5)N4C(=O)C(NC(=O)C(C)NC)C3)c2)CCC2CCC(C(=O)NC(c3ccccc3)c3ccccc3)N2C1=O, the IC50 is over 100 nM (curve of first compound, second compound 0.00316 µM); 83.9 nM (curve of first compound, second compound 0.01 µM); over 100 nM (curve of first compound, second compound 0.0316 µM); over 100 nM (curve of first compound, second compound 0.1 µM); 95.3 nM (curve of first compound, second compound 0.316 µM); over 100 nM (curve of first compound, second compound 1 µM). For the same compound, the viability, T/C was 65.4% (second compound 0.00316 µM, first compound 0.000316 µM); 91.4% (second compound 0.00316 µM, first compound 0.001 µM); 51.1% (second compound 0.00316 µM, first compound 0.00316 µM); 99.5% (second compound 0.00316 µM, first compound 0.01 µM); 55% (second compound 0.00316 µM, first compound 0.0316 µM); 52.7% (second compound 0.00316 µM, first compound 0.1 µM). Further, the viability, T/C is 72.2% (second compound 0.01 µM, first compound 0.000316 µM); 74.9% (second compound 0.01 µM, first compound 0.001 µM); 79.5% (second compound 0.01 µM, first compound 0.00316 µM); 84.7% (second compound 0.01 µM, first compound 0.01 µM); 62.6% (second compound 0.01 µM, first compound 0.0316 µM); 47.7% (second compound 0.01 µM, first compound 0.1 µM). The viability, T/C (second compound 0.0316 µM, first compound 0.000316 µM) is 88.5%; the viability, T/C (second compound 0.0316 µM, first compound 0.001 µM) is 63.8%; the viability, T/C (second compound 0.0316 µM, first compound 0.00316 µM) is 70.4%; the viability, T/C (second compound 0.0316 µM, first compound 0.01 µM) is 81.8%; the viability, T/C (second compound 0.0316 µM, first compound 0.0316 µM) is 61.8%; the viability, T/C (second compound 0.0316 µM, first compound 0.1 µM) was 61.6%. In addition, the viability, T/C is 94.8% (second compound 0.1 µM, first compound 0.000316 µM); 79.1% (second compound 0.1 µM, first compound 0.001 µM); 87.3% (second compound 0.1 µM, first compound 0.00316 µM); 61.1% (second compound 0.1 µM, first compound 0.01 µM); 69.5% (second compound 0.1 µM, first compound 0.0316 µM); 54.3% (second compound 0.1 µM, first compound 0.1 µM). Also, the viability, T/C was 83.3% (second compound 0.316 µM, first compound 0.000316 µM); 77.2% (second compound 0.316 µM, first compound 0.001 µM); 69.3% (second compound 0.316 µM, first compound 0.00316 µM); 99.6% (second compound 0.316 µM, first compound 0.01 µM); 79.6% (second compound 0.316 µM, first compound 0.0316 µM); 48.7% (second compound 0.316 µM, first compound 0.1 µM). Further, the viability, T/C was 92.9% (second compound 1 µM, first compound 0.000316 µM); 59.2% (second compound 1 µM, first compound 0.001 µM); 69.1% (second compound 1 µM, first compound 0.00316 µM); 63.3% (second compound 1 µM, first compound 0.01 µM); 85.2% (second compound 1 µM, first compound 0.0316 µM); 55.7% (second compound 1 µM, first compound 0.1 µM).

`Cn1ncnc1[C@H]1c2n[nH]c(=O)c3cc(F)cc(c23)N[C@@H]1c1ccc(F)cc1`: the viability, T/C by setting is: (compound 0.000316 µM) 96.5% and 77% and 100%; (compound 0.001 µM) 85.1% and 66.4% and 78.8%; (compound 0.00316 µM) 81.7% and 67.3% and 52.8%; (compound 0.01 µM) 80.5% and 61.2% and 65.7%; (compound 0.0316 µM) 70% and 42.6% and 64.6%; (compound 0.1 µM) 75.9% and 56.8% and 44%. Further, the half-inhibitory concentration (IC50) (curve of compound) was > 100 nM and 30.7 nM.
